Measured values from ChEMBL document CHEMBL1146250, “Synthesis and antimicrobial activity of 7-fluoro-3-aminosteroids” (2007).
Converted amounts (≈) assume the structure as drawn.

What was measured:
Pseudomonas aeruginosa [1] = assay: Antimicrobial activity against Pseudomonas aeruginosa 1771M; assay type: functional
Streptococcus pyogenes [2] = assay: Antimicrobial activity against Streptococcus pyogenes 77A; assay type: functional
Enterobacter cloacae = assay: Antimicrobial activity against Enterobacter cloacae 1321E; assay type: functional
Staphylococcus aureus = assay: Antimicrobial activity against Staphylococcus aureus 503; assay type: functional
Salmonella typhimurium = assay: Antimicrobial activity against Salmonella Typhimurium; assay type: functional, Salmonella enterica subsp. enterica serovar Typhimurium; settings: Salmonella enterica
Escherichia coli = assay: Antimicrobial activity against Escherichia coli DC2; assay type: functional
Streptococcus pyogenes [3] = assay: Antimicrobial activity against Streptococcus pyogenes 308A; assay type: functional
Pseudomonas aeruginosa [4] = assay: Antimicrobial activity against Pseudomonas aeruginosa 9027; assay type: functional

| SMILES | MIC (Pseudomonas aeruginosa [1]) [µg/mL] | MIC (Streptococcus pyogenes [2]) [µg/mL] | MIC (Enterobacter cloacae) [µg/mL] | MIC (Staphylococcus aureus) [µg/mL] | MIC (Salmonella typhimurium) [µg/mL] | MIC (Escherichia coli) [µg/mL] | MIC (Streptococcus pyogenes [3]) [µg/mL] | MIC (Pseudomonas aeruginosa [4]) [µg/mL] |
| --- | --- | --- | --- | --- | --- | --- | --- | --- |
| CC(CO)[C@H]1CC[C@H]2[C@@H]3[C@H](F)C[C@H]4C[C@H](NCCCNCCCCN)CC[C@]4(C)[C@H]3CC[C@]12C (single isomer, unassigned) | 100 (≈ 208 µM) | 12.5 (≈ 26.1 µM) | 100 (≈ 208 µM) | 12.5 (≈ 26.1 µM) | 100 (≈ 208 µM) | 50 (≈ 104 µM) | 25 (≈ 52.1 µM) | 50 (≈ 104 µM) |
| CC(COS(=O)(=O)O)[C@H]1CC[C@H]2[C@@H]3[C@H](F)C[C@H]4C[C@H](NCCCNCCCCN)CC[C@]4(C)[C@H]3CC[C@]12C (single isomer, unassigned) | 50 (≈ 89.3 µM) | 12.5 (≈ 22.3 µM) | 100 (≈ 179 µM) | 12.5 (≈ 22.3 µM) | 100 (≈ 179 µM) | 25 (≈ 44.7 µM) | 12.5 (≈ 22.3 µM) | 25 (≈ 44.7 µM) |
| CC(CO)[C@H]1CC[C@H]2[C@@H]3[C@@H](F)C[C@H]4C[C@@H](NCCCNCCCCN)CC[C@]4(C)[C@H]3CC[C@]12C (single isomer, unassigned) | 6.3 (≈ 13.1 µM) | 12.5 (≈ 26.1 µM) | 100 (≈ 208 µM) | 6.3 (≈ 13.1 µM) | 100 (≈ 208 µM) | 12.5 (≈ 26.1 µM) | 12.5 (≈ 26.1 µM) | 12.5 (≈ 26.1 µM) |
| CC(CO)[C@H]1CC[C@H]2[C@@H]3[C@@H](F)C[C@H]4C[C@H](NCCCNCCCCN)CC[C@]4(C)[C@H]3CC[C@]12C (single isomer, unassigned) | 25 (≈ 52.1 µM) | 6.3 (≈ 13.1 µM) | 100 (≈ 208 µM) | 6.3 (≈ 13.1 µM) | 50 (≈ 104 µM) | 12.5 (≈ 26.1 µM) | 12.5 (≈ 26.1 µM) | 12.5 (≈ 26.1 µM) |
| CC(COS(=O)(=O)O)[C@H]1CC[C@H]2[C@@H]3[C@@H](F)C[C@H]4C[C@@H](NCCCNCCCCN)CC[C@]4(C)[C@H]3CC[C@]12C (single isomer, unassigned) | 50 (≈ 89.3 µM) | 50 (≈ 89.3 µM) | 50 (≈ 89.3 µM) | 50 (≈ 89.3 µM) | 50 (≈ 89.3 µM) | 25 (≈ 44.7 µM) | 50 (≈ 89.3 µM) | 50 (≈ 89.3 µM) |
| CC(CO)[C@H]1CC[C@H]2[C@@H]3[C@H](F)C[C@H]4C[C@@H](NCCCNCCCCN)CC[C@]4(C)[C@H]3CC[C@]12C (single isomer, unassigned) | 3.1 (≈ 6.46 µM) | 6.3 (≈ 13.1 µM) | 100 (≈ 208 µM) | 6.3 (≈ 13.1 µM) | 100 (≈ 208 µM) | 6.3 (≈ 13.1 µM) | 6.3 (≈ 13.1 µM) | 6.3 (≈ 13.1 µM) |
| C[C@@H](COS(=O)(=O)O)[C@H]1CC[C@H]2[C@@H]3[C@H](O)C[C@H]4C[C@@H](NCCCNCCCCN)CC[C@]4(C)[C@H]3CC[C@]12C | 50 (≈ 89.6 µM) | 50 (≈ 89.6 µM) | 50 (≈ 89.6 µM) | 50 (≈ 89.6 µM) | 50 (≈ 89.6 µM) | 50 (≈ 89.6 µM) | – | 50 (≈ 89.6 µM) |

Continued by falling MIC (Pseudomonas aeruginosa [1]), values first:

| MIC (Pseudomonas aeruginosa [1]) [µg/mL] | MIC (Streptococcus pyogenes [2]) [µg/mL] | MIC (Enterobacter cloacae) [µg/mL] | MIC (Staphylococcus aureus) [µg/mL] | MIC (Salmonella typhimurium) [µg/mL] | MIC (Escherichia coli) [µg/mL] | MIC (Streptococcus pyogenes [3]) [µg/mL] | MIC (Pseudomonas aeruginosa [4]) [µg/mL] | SMILES |
| --- | --- | --- | --- | --- | --- | --- | --- | --- |
| 50 (≈ 89.3 µM) | 12.5 (≈ 22.3 µM) | 50 (≈ 89.3 µM) | 6.3 (≈ 11.3 µM) | 50 (≈ 89.3 µM) | 25 (≈ 44.7 µM) | 25 (≈ 44.7 µM) | 50 (≈ 89.3 µM) | CC(COS(=O)(=O)O)[C@H]1CC[C@H]2[C@@H]3[C@@H](F)C[C@H]4C[C@H](NCCCNCCCCN)CC[C@]4(C)[C@H]3CC[C@]12C (single isomer, unassigned) |
| 25 (≈ 44.7 µM) | 50 (≈ 89.3 µM) | 100 (≈ 179 µM) | 25 (≈ 44.7 µM) | 100 (≈ 179 µM) | 50 (≈ 89.3 µM) | 50 (≈ 89.3 µM) | 12.5 (≈ 22.3 µM) | CC(COS(=O)(=O)O)[C@H]1CC[C@H]2[C@@H]3[C@H](F)C[C@H]4C[C@@H](NCCCNCCCCN)CC[C@]4(C)[C@H]3CC[C@]12C (single isomer, unassigned) |
| 25 (≈ 52.3 µM) | 25 (≈ 52.3 µM) | 50 (≈ 105 µM) | 12.5 (≈ 26.2 µM) | 50 (≈ 105 µM) | 25 (≈ 52.3 µM) | 25 (≈ 52.3 µM) | 12.5 (≈ 26.2 µM) | C[C@@H](CO)[C@H]1CC[C@H]2[C@@H]3[C@H](O)C[C@H]4C[C@@H](NCCCNCCCCN)CC[C@]4(C)[C@H]3CC[C@]12C |
| 6.3 (≈ 13.6 µM) | 100 (≈ 217 µM) | 100 (≈ 217 µM) | 6.3 (≈ 13.6 µM) | 50 (≈ 108 µM) | 12.5 (≈ 27.1 µM) | 100 (≈ 217 µM) | 12.5 (≈ 27.1 µM) | CC(CO)[C@H]1CC[C@H]2[C@@H]3CC[C@H]4C[C@@H](NCCCNCCCCN)CC[C@]4(C)[C@H]3CC[C@]12C (single isomer, unassigned) |
